Like-named read-outs stand apart in the source and are kept apart here.
Tests used:
[1] = molecular target: T1, porcine α2δ1 (pα2δ1) calcium channel subunit (Sus scrofa, UniProt A0A287BIN3); assay: [3H]gabapentin radioligand binding to membranes from HEK293 stable cell line GKS02; conditions: for affinity in competition with [3H]gabapentin binding, in words: pα2δ1
T1 construct: expressed in transfected cells
Experimental: Cell culture and transfection. […] The media were supplemented with 50 units/mL penicillin, 50 μg/mL streptomycin, and 10% heat-inactivated fetal bovine serum (FBS), in a humidified incubator with 95% air and 5% CO2 at 37° C. For transient transfection into COS-7 cells, 20 μg of plasmid DNA (vector or the same vector with α2δ insert) was incubated with 30 μL of lipofectamine. The mixture was overlaid onto the cells in 1.5 mL serum-free medium and incubated for 5 hours. Then FBS was added to the dishes to bring the final concentration to 10%. The medium was changed next morning. Forty-eight hours after the transfection, the cells were harvested for membrane preparation. For stable transfection of porcine α2δ1 and human α2δ2 into HEK 293 cells, the same procedure was applied as that for a transient transfection except for that 800 μg/mL G418 (gentacin) was added to the cells 48 hours after the transfection. […] In addition, hosts for expression of α2δ2 protein binding assays can also include eukaryotic expression systems such as yeast, insect cells, and mammalian cells (CHO, COS-7, HEK293, etc.).
(§1) Membrane preparation. Membranes were prepared from tissues or cultured cells. The cells were washed twice with cold PBS and then scraped off with cold buffer containing Tris (5 mM, pH 7.4), EDTA (5 mM), PMSF (0.1 mM), leupeptin (0.02 mM), and pepstatin (0.02 mM). The cells were incubated on ice for 30 minutes, followed by sonication for 30 to 40 seconds. For membrane preparations from tissues, the tissues were sliced into small pieces and subjected to sonication at interval of 10 seconds 4 times. The resulting homogenates from tissues or cultured cells were centrifuged for 10 minutes at 750 to 1000×g, and then the supernatants were centrifuged at 50,000×g for 30 minutes. The resulting pellets were resuspended in the same buffer as described above.
Binding assays. […] The membranes (100 μg of proteins for transiently transfected cells, 20 μg for GKS02 cell membranes, and 10 μg for GKS07 cell membranes) were incubated in 10 mM HEPES (N-[2-hydroxyethyl]piperazine-N′-[2-ethanesulfonic acid]) (pH 7.4) for 40 to 50 minutes at room temperature, and then filtered onto pre-wetted GF/C membranes and quickly washed five times with 3 mL of ice cold 50 mM Tris buffer (pH 7.4). The filters were dried and counted in a liquid scintillation counter. […] The specific binding was obtained by subtracting nonspecific binding from the total binding.

[2] = molecular target: T2, human α2δ2 (hα2δ2) calcium channel subunit (Homo sapiens, UniProt Q9NY47); assay: [3H]gabapentin radioligand binding to membranes from HEK293 stable cell line GKS07; conditions: for affinity in competition with [3H]gabapentin binding, in words: hα2δ2
T2 construct: covered the whole open reading frame of hα2δ2 cDNA; expressed in transfected cells
T2 sequence (Q9NY47 19-1145 isoform Q9NY47-3 limits assumed): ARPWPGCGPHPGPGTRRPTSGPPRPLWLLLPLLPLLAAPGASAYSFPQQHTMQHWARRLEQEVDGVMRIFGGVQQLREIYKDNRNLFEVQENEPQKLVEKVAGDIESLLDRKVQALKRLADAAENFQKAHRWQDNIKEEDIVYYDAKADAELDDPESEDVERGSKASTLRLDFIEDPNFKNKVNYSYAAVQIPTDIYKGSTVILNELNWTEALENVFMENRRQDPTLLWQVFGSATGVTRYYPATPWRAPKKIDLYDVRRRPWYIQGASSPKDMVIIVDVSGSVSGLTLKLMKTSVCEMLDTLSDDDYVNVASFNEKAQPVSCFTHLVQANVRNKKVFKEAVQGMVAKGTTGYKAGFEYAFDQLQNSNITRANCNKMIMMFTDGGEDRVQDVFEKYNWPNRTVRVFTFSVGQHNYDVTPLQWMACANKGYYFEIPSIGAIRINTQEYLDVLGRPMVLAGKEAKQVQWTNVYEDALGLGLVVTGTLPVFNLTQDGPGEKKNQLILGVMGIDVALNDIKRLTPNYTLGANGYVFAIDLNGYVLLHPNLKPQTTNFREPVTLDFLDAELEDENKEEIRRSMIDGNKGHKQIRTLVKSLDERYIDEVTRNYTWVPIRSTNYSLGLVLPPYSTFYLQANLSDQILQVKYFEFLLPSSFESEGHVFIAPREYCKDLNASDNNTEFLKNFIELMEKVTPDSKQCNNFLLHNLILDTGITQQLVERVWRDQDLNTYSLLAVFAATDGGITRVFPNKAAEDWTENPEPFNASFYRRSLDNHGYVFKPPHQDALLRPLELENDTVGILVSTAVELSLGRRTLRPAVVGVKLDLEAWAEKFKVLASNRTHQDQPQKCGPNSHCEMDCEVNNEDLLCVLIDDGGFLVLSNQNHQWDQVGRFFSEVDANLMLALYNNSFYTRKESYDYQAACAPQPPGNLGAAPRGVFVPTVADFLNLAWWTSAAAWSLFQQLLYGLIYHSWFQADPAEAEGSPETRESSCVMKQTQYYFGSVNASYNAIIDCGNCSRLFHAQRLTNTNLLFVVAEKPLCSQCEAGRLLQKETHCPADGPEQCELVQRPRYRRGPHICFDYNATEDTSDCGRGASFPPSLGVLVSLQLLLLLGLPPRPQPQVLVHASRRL
T2 sequence (Q9NY47 1002-1150 partner limits assumed): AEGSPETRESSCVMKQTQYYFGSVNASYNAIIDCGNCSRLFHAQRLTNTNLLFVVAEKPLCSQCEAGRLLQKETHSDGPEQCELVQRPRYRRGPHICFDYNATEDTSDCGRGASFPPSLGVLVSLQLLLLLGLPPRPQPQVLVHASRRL
Experimental: Cell culture and transfection. COS-7 and HEK293 cells were cultured in DMEM and RPMI 1640 media, respectively. The media were supplemented with 50 units/mL penicillin, 50 μg/mL streptomycin, and 10% heat-inactivated fetal bovine serum (FBS), in a humidified incubator with 95% air and 5% CO2 at 37° C. For transient transfection into COS-7 cells, 20 μg of plasmid DNA (vector or the same vector with α2δ insert) was incubated with 30 μL of lipofectamine. The mixture was overlaid onto the cells in 1.5 mL serum-free medium and incubated for 5 hours. Then FBS was added to the dishes to bring the final concentration to 10%. The medium was changed next morning. Forty-eight hours after the transfection, the cells were harvested for membrane preparation. For stable transfection of porcine α2δ1 and human α2δ2 into HEK 293 cells, the same procedure was applied as that for a transient transfection except for that 800 μg/mL G418 (gentacin) was added to the cells 48 hours after the transfection. […] The cell line has ATCC No. PTA-1823. In addition, hosts for expression of α2δ2 protein binding assays can also include eukaryotic expression systems such as yeast, insect cells, and mammalian cells (CHO, COS-7, HEK293, etc.).
as §1
Binding assays. […] The membranes (100 μg of proteins for transiently transfected cells, 20 μg for GKS02 cell membranes, and 10 μg for GKS07 cell membranes) were incubated in 10 mM HEPES (N-[2-hydroxyethyl]piperazine-N′-[2-ethanesulfonic acid]) (pH 7.4) for 40 to 50 minutes at room temperature, and then filtered onto pre-wetted GF/C membranes and quickly washed five times with 3 mL of ice cold 50 mM Tris buffer (pH 7.4). The filters were dried and counted in a liquid scintillation counter. For determining nonspecific binding, the binding assays were performed in the presence of 10 μM pregabalin (Gee N. S., Brown J. P., Dissanayake V. U., Offord J.; Thurlow R., Woodruff G. N., J. Biol. Chem., 1996;271:5768–5776). The specific binding was obtained by subtracting nonspecific binding from the total binding. Clone #7 was identified as the highest α2δ2 subunit expressing clone. Binding assays can also be performed using recombinant and/or purified α2δ2 protein from human and other mammalian species, for screening α2δ2 subtype-selective inhibitors.

T1 sequence (A0A287BIN3 25-1109): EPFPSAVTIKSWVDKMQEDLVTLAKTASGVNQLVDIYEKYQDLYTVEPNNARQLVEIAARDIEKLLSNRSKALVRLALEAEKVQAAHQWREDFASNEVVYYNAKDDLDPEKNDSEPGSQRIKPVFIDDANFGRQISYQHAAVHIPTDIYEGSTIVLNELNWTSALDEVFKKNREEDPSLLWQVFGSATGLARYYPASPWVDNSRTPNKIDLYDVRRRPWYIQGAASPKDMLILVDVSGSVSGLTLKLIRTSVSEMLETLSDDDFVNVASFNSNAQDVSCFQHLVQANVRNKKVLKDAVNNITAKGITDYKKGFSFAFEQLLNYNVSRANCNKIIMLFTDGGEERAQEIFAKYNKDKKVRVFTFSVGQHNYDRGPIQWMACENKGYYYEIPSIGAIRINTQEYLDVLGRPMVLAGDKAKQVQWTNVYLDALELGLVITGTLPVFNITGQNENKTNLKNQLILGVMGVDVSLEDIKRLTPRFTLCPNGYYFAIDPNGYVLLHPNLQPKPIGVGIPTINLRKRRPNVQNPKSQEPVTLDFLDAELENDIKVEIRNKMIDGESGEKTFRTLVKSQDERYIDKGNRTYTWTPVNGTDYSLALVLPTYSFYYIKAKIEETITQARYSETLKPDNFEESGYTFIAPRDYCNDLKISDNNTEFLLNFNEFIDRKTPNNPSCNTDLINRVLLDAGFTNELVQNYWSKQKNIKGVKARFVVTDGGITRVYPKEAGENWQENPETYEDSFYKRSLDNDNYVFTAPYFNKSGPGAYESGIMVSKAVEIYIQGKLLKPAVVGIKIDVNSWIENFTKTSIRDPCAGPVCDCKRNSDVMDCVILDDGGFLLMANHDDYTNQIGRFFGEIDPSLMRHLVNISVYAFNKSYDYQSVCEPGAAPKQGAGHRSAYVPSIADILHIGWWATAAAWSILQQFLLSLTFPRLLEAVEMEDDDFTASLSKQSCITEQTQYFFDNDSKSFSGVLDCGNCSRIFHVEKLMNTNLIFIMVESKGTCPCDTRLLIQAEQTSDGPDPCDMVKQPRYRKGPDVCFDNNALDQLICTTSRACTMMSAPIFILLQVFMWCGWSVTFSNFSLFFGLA

SMILES | IC50 [1] [nM] | affinity in competition with [3H]gabapentin binding, in words [1] | IC50 [2] [nM] | affinity in competition with [3H]gabapentin binding, in words [2] | IC50 ([1]; read-out: IC50 Values for Inhibition of [3H]Gabapentin Binding, GKS02 (pα2δ1), membranes from HEK293 cell line GKS02, 20 nM [3H]gabapentin) [nM] | IC50 ([2]; read-out: IC50 Values for Inhibition of [3H]Gabapentin Binding, GKS07 (hα2δ2), membranes from HEK293 cell line GKS07, 20 nM [3H]gabapentin) [nM]
CC(C)C[C@H](N)C(=O)O [L-leucine] | 118 | markedly more potent than its D-enantiomer | 205 | markedly more potent than its D-enantiomer |  | 
CC(C)C[C@@H](N)C(=O)O [D-leucine] | 199000 |  | 152000 |  |  | 
NCC1(CC(=O)O)CCCCC1 [Gabapentin, 1-(aminomethyl)cyclohexane acetic acid] |  |  | 282 |  |  | 
N[C@@H](Cc1ccccc1)C(=O)O [L-phenylalanine] | 825 |  | 2960 | weak |  | 
NC1(C(=O)O)CC2CCC1C2 (stereo not shown) [BCH] |  | weak |  | weak | 1030 | 775
CC(C)C[C@H](CN)CC(=O)O [Pregabalin, (S+)-3-isobutyl GABA] | 149 |  | 96 |  |  | 

From US7067262B2, “Cell line for the expression of an α2δ2 calcium channel subunit and methods of use” (Warner Lambert Company LLC, priority 2000, dated 2006)
